Assays:
[1] = target: T1, C-RAF (Homo sapiens, UniProt P04049); experiment: Kinase inhibition assay (Reaction Biology Corporation); format: biochemical; details: 10 μM ATP, 10-point curve
T1 construct: purchased Reaction Biology Corporation (Malvern, Pa.), contract assay service

[2] = system: MEK or ERK1/2 phosphorylation in HT-29 BRAF V600E mutant colorectal cancer cells; experiment: Immunoblot analysis of BRAF signaling; format: cell-based; details: HT-29 cells, FIG. 4B
Experimental: (§1) Cells were lysed in SDS lysis buffer (0.06 M Tris-HCL. 1% SDS and 10% glycerol) and protein concentration was determined using a BCA Protein assay (Thermo Scientific). Cellular lysates ([…]) were resolved by electrophoresis and transferred to nitrocellulose membranes using NuPage Novex reagents (Invitrogen). Membranes were immunoblotted with the indicated antibodies (Cell Signaling Technology) and then exposed to Supersignal ELISA femto maximum sensitivity substrate (Thermo Scientific) to generate a chemiluminescent signal.

[3] = system: MEK or ERK1/2 phosphorylation in A375 BRAF V600E mutant melanoma cancer cells; experiment: Immunoblot analysis of BRAF signaling; format: cell-based; details: FIG. 1B
Experimental: as §1

[4] = system: MEK or ERK1/2 phosphorylation in SH-4 BRAF V600E mutant melanoma cancer cells; experiment: Immunoblot analysis of BRAF signaling; format: cell-based; details: SH-4 cells, FIG. 2B
Experimental: as §1

[5] = system: SK-MEL-24 BRAF V600E melanoma cell line; experiment: Cell growth assay; format: cell-based; details: Homo sapiens, read-out: Ponatinib GI50 (nM), SK-MEL-24, Melanoma, 72 hours
Experimental: (§2) Cell growth was assessed using the Cell Titer 96 Aqueous One Solution Cell Proliferation Assay (Promega) and absorbance was measured using a Wallac Victor microplate reader (PerkinElmer). To differentiate between a cytostatic and cytotoxic drug effect, the concentration that causes 50% growth inhibition (GI50) was determined by correcting for the cell count at time zero (time of treatment) and plotting data as percent growth relative to vehicle-treated cells using XLfit version 5.2.0 for Microsoft Excel. Data are shown as mean from 3 independent experiments performed in triplicate.

[6] = system: HT-29 BRAF V600E colorectal cancer cell line; experiment: Cell growth assay; format: cell-based; details: Homo sapiens, read-out: Ponatinib GI50 (nM), HT-29, Colorectal, 72 hours
Experimental: as §2

[7] = system: A375 BRAF V600E melanoma cell line; experiment: Cell growth assay; format: cell-based; details: Homo sapiens, A-375, read-out: Ponatinib GI50 (nM), 72 hours
Experimental: as §2

[8] = system: SH-4 BRAF V600E melanoma cell line; experiment: Cell growth assay; format: cell-based; details: Homo sapiens, read-out: Ponatinib GI50 (nM), SH-4, Melanoma, 72 hours
Experimental: as §2

[9] = system: CHL-1 BRAF wt melanoma cell line; experiment: Cell growth assay (automated cell line screening, Ricerca Biosciences); format: cell-based; details: Homo sapiens, read-out: Ponatinib GI50 (nM), CHL-1, Melanoma, tested by Ricerca Biosciences
Experimental: as §2
(§3) Cell growth assays were also performed as part of an automated cell line screening assay (Ricerca Biosciences, LLC, Bothell, Wash., USA). Experimental procedures are similar to those described above.

[10] = system: C32 BRAF V600E het melanoma cell line; experiment: as above; format: cell-based; details: Homo sapiens, read-out: Ponatinib GI50 (nM), tested by Ricerca Biosciences
Experimental: as §2, §3

T1 sequence (P04049 whole entry): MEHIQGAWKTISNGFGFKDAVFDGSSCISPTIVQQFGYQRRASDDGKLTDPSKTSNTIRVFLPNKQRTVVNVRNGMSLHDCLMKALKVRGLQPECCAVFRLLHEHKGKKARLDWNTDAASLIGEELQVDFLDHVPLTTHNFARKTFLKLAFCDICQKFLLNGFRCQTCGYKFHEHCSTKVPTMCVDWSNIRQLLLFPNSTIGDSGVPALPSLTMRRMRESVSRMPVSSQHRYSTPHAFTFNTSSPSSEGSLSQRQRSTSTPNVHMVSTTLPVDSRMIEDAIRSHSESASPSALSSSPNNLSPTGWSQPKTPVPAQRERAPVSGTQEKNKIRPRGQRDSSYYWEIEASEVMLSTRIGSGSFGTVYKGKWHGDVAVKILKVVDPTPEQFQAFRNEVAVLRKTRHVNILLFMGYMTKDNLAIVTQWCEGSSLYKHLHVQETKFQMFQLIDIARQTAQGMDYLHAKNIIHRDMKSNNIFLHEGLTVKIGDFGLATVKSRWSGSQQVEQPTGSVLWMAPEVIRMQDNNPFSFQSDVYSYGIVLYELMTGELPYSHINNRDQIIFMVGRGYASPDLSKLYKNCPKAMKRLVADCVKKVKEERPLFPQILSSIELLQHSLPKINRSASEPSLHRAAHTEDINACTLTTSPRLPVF

For `CC(C)N1CCN(Cc2ccc(NC(=O)c3cncc(C#Cc4cnc5cnccn45)c3)cc2C(F)(F)F)CC1`, the IC50 ([1]; Table 2) was 14.4 nM.

`O=C(Nc1cccc(C(F)(F)F)c1)c1cncc(C#Cc2cnc3cccnn23)c1` showed an IC50 ([1]; Table 2) of 2.07 nM.

`Cc1ccc(C(=O)Nc2ccc(CN3CCN(C)CC3)c(C(F)(F)F)c2)cc1C#Cc1cnc2ccccn12` [Example 8, 3-(Imidazo[1,2-a]pyridin-3-ylethynyl)-4-methyl-N-(4-((4-methylpiperazin-1-yl)methyl)-3-(trifluoromethyl)phenyl)benzamide] was tested, and the IC50 ([1]; Table 1) was 26 nM.

Work on `Cc1ccc(C(=O)Nc2ccc(CN3CCN(C)CC3)c(C(F)(F)F)c2)cc1C#Cc1cnc2cnccn12` [Example 2, 3-(Imidazo[1,2-a]pyrazin-3-ylethynyl)-4-methyl-N-(4-((4-methylpiperazin-1-yl)methyl)-3-(trifluoromethyl)phenyl)benzamide] yielded an IC50 ([1]; Table 1) of 2.13 nM.

With `Cc1ccc(C(=O)Nc2cc(N(C)CCO)cc(C(F)(F)F)c2)cc1C#Cc1cnc2cccnn12` the IC50 ([1]; Table 2) was 14.4 nM.

For `Cc1ccc(C(=O)Nc2cc(-c3cncnc3)cc(C(F)(F)F)c2)cc1C#Cc1cnc2cccnn12`, the IC50 ([1]; Table 2) was 8.5 nM.

Molecule `Cc1ccc(C(=O)Nc2cc(N3CCOCC3)cc(C(F)(F)F)c2)cc1C#Cc1cnc2cccnn12` has an IC50 ([1]; Table 2) of 17.2 nM.

`Cc1ccc(C(=O)Nc2cc(-n3cnc(C#N)c3)cc(C(F)(F)F)c2)cc1C#Cc1cnc2ccccn12` showed an IC50 ([1]; Table 2) of 998 nM.

With `Cc1ccc(C(=O)Nc2ccc(CC(=N)N)c(C(F)(F)F)c2)cc1C#Cc1cnc2cccnn12` the IC50 ([1]; Table 2) was 3.91 nM.

With `Cc1ccc(C(=O)Nc2cc(-n3cnc(CN4CCCC4)c3)cc(C(F)(F)F)c2)cc1C#Cc1cnc2cccnn12` the IC50 ([1]; Table 2) was 9.19 nM.

`Cc1ccc(-c2nc3cc(C(F)(F)F)ccc3[nH]2)cc1C#Cc1cnc2cccnn12` gave an IC50 ([1]; Table 2) of 5.8 nM.

Work on `Cc1ccc(C(=O)Nc2cc(C(F)(F)F)ccn2)cc1C#Cc1cnc2c(N)cccn12` yielded an IC50 ([1]; Table 2) of 4.78 nM.

Work on `Cc1ccc(NC(=O)c2ccc(CN3CCN(C)CC3)c(C(F)(F)F)c2)cc1C#Cc1cnc2cccnn12` [Example 15, N-(3-(Imidazo[1,2-b]pyridazin-3-ylethynyl)-4-methylphenyl)-4-((4-methylpiperazin-1-yl)methyl)-3-(trifluoromethyl)benzamide] yielded an IC50 ([1]; Table 1) of 12.2 nM.

`Cc1ccc(C(=O)Nc2ccc(C(F)(F)F)cc2)cc1C#Cc1cnc2cccnn12` gave an IC50 ([1]; Table 2) of 4.39 nM.

For `CC(=O)Nc1cccn2c(C#Cc3cc(NC(=O)Nc4cc(C(F)(F)F)ccn4)ccc3C)cnc12`, the IC50 ([1]; Table 2) was 5.09 nM.

In the case of `Cc1ccc(C(=O)Nc2cc(-n3ccnc3CN(C)C)cc(C(F)(F)F)c2)cc1C#Cc1cnc2cnccn12`, the IC50 ([1]; Table 2) is reported as 9.22 nM.

`Cc1ccc(C(=O)Nc2ccc(CN3CCOCC3)c(C(F)(F)F)c2)cc1C#Cc1cnc2cnccn12` was tested, and the IC50 ([1]; Table 2) was 5.43 nM.

`Cc1ccc(C(=O)Nc2cc(-n3ccnc3)cc(C(F)(F)F)c2)cc1C#Cc1cnc2c(N)cccn12` was tested, and the IC50 ([1]; Table 2) was 51.1 nM.

Molecule `CN1CCN(Cc2ccc(NC(=O)c3cccc(C#Cc4cnc5cnccn45)c3)cc2Cl)CC1` has an IC50 ([1]; Table 2) of 3.96 nM.

Molecule `Cc1ccc(C(=O)Nc2cc(C(F)(F)F)ccc2NCCN2CCCC2)cc1C#Cc1cnc2ccccn12` has an IC50 ([1]; Table 2) of 24.3 nM.

Work on `Cc1ccc(C(=O)Nc2ccc(C#N)c(C(F)(F)F)c2)cc1C#Cc1cnc2ccccn12` yielded an IC50 ([1]; Table 2) of 57.3 nM.

In the case of `Cc1ccc(C(=O)Nc2cc(-n3ccnc3)cc(C(F)(F)F)c2)cc1C#Cc1cnc2c(NC(N)=O)cccn12`, the IC50 ([1]; Table 2) is reported as 12.7 nM.

`CNC(=O)CNc1ccc(NC(=O)c2ccc(C)c(C#Cc3cnc4ccccn34)c2)cc1C(F)(F)F` gave an IC50 ([1]; Table 2) of 29.5 nM.

With `Cc1cnc(NC(=O)c2ccc(C)c(C#Cc3cnc4c(NC(N)=O)cccn34)c2)s1` the IC50 ([1]; Table 2) was 2.49 nM.

`Cc1ccc(C(=O)Nc2ccc(Cl)cc2)cc1C#Cc1cnc2cccnn12` gave an IC50 ([1]; Table 2) of 10.7 nM.

For `CN1CCN(Cc2ccc(NC(=O)c3cccc(C#Cc4cnc5ccccn45)c3)cc2C(F)(F)F)CC1`, the IC50 ([1]; Table 2) was 26.7 nM.

In the case of `Cc1ccc(C(=O)Nc2ccc(CN3CCN(C)CC3)c(C(F)(F)F)c2)cc1C#Cc1cnc2cccnn12` [Ponatinib, 3-(Imidazo[1,2-b]pyridazin-3-ylethynyl)-4-methyl-N-(4-((4-methylpiperazin-1-yl)methyl)-3-(trifluoromethyl)phenyl)benzamide], the “MEK or ERK1/2 phosphorylation” value [2] is reported as “inhibit”, the “MEK or ERK1/2 phosphorylation” value [3] is reported as “inhibit” and the “MEK or ERK1/2 phosphorylation” value [4] is reported as “inhibit”. For the same molecule, the GI50 [5] was 767 nM, the GI50 [6] was 354 nM and the GI50 [7] was 372 nM. The GI50 [8] was 85.6 nM, the GI50 [9] was 88.5 nM and the GI50 [10] was 107 nM.

With `Cc1ccc(C(=O)Nc2cc(C(C)(C)C)on2)cc1C#Cc1cnc2cccnn12` the IC50 ([1]; Table 2) was 4.27 nM.

Molecule `Cc1ccc(C(=O)Nc2cccc(C(F)(F)F)c2)cc1C#Cc1cnc2cccnn12` has an IC50 ([1]; Table 2) of 1.45 nM.

`Cc1ccc(NC(=O)c2ccc3ccn(C)c3c2)cc1C#Cc1cnc2cccnn12` showed an IC50 ([1]; Table 2) of 3.12 nM.

With `CC(=O)Nc1cccn2c(C#Cc3cc(C(=O)Nc4cccc(C(F)(F)F)c4)ccc3C)cnc12` the IC50 ([1]; Table 2) was 7.3 nM.

Work on `Cc1cc(C#Cc2cnc3cccnn23)cc(C(=O)Nc2cccc(C(F)(F)F)c2)c1` yielded an IC50 ([1]; Table 2) of 2940 nM.

Work on `CN1CCN(Cc2ccc(NC(=O)c3cncc(C#Cc4cnc5cccnn45)c3)cc2Cl)CC1` yielded an IC50 ([1]; Table 2) of 25.6 nM.

In the case of `Cc1ccc(C(=O)Nc2cc(-n3cnc(CN(C)C)c3)cc(C(F)(F)F)c2)cc1C#Cc1cnc2cccnn12`, the IC50 ([1]; Table 2) is reported as 3.84 nM.

`Cc1ccc(C(=O)Nc2cc(CN3CCOCC3)cc(C(F)(F)F)c2)cc1C#Cc1cnc2ccccn12` gave an IC50 ([1]; Table 2) of 83.1 nM.

Work on `CC(=O)Nc1cccn2c(C#Cc3cc(C(=O)Nc4cc(C(F)(F)F)ccn4)ccc3C)cnc12` [Example 10, 3-((8-Acetamidoimidazo[1,2-a]pyridin-3-yl)ethynyl)-4-methyl-N-(4-(trifluoromethyl)pyridin-2-yl)benzamide] yielded an IC50 ([1]; Table 1) of 2.42 nM.

`Cc1ccc(F)c(NC(=O)c2ccc(C)c(C#Cc3cnc4cccnn34)c2)c1` showed an IC50 ([1]; Table 2) of 2.76 nM.

`CN1CCN(Cc2ccc(NC(=O)c3ccc(F)c(C#Cc4cnc5ccccn45)c3)cc2C(F)(F)F)CC1` gave an IC50 ([1]; Table 2) of 51.7 nM.

In the case of `Cc1ccc(C(=O)Nc2ccc(CN3CCCC3)c(C(F)(F)F)c2)cc1C#Cc1cnc2ccccn12`, the IC50 ([1]; Table 2) is reported as 60.2 nM.
